Measurements published in patent US11447472B2, “Polymorophs of 5-aza-4′-thio-2′-deoxycytidine” (Southern Research Institute, priority 2020, dated 2022).
≈ marks a conversion by molar mass, not a printed value.

Tests used:
Format in all cases: physicochemical
[1] = Chemical stability of aza-T-dCyd in solutions (RT, 50° C., 80° C.), HPLC; conditions: for purity in solution (chemical stability): RT for 24 h, and 50° C. or 80° C. for 1 hour, HPLC
Description: The chemical stability of aza-T-dCyd was determined. Aza-T-dCyd was prepared in 1,4-dioxane, acetonitrile (ACN), isopropanol (IPA), and methyl ethyl ketone. Each solution was divided over 3 vials and incubated at RT for 24 hours, at 50° C. for 1 hour, or at 80° C. for 1 hour. The solutions were analyzed by HPLC at the start and after the incubation time.

[2] = Stability tests at 5° C.: mother liquors and solid phases of suspensions, HPLC; conditions: for chemical stability (purity over time) / purity decreased over time to: 5° C.; for chemical stability (purity over time): 70 hours; for purity decreased over time to: about 70 hours, area %
Description: Additional stability tests were performed at 5° C. Suspensions of the starting material were prepared in water, acetonitrile, ethanol (EtOH), and isopropanol. The mother liquors of the suspensions and the water solution were analyzed by HPLC at regular intervals over 3 days.
The solid phases from the suspensions were also evaluated for purity after 72 h. […] Therefore, the aza-T-dCyd appeared chemically stable in the solid phase after 70-hour incubation at 5° C.

[3] = Thermodynamic solubility, shake-flask method; conditions: for solubility at 24 h: organic solvent or mixture, thermodynamic from solid, RT
Description: The thermodynamic solubility of aza-T-dCyd was determined according to the shake-flask method. Suspensions of the crystalline aza-T-dCyd were prepared in 25 neat solvents. Small aliquots of solvent were added to the aza-T-dCyd until thin suspensions were obtained. Subsequently, the samples were equilibrated at RT under continuous stirring for 24 hours. After equilibration, a small aliquot of mother liquor was filtered and analyzed by HPLC. The concentration of the solute was determined against a calibration curve of the aza-T-dCyd. The solubility values of aza-T-dCyd at room temperature are listed in Table 3 according to the US Pharmacopeia's classification (USP29). The aza-T-dCyd was soluble in high boiling point solvents such as DMF and DMA. Generally, aza-T-dCyd was slightly or very slightly soluble in polar solvents and practically insoluble in non-polar solvents.

In the case of `Nc1ncn([C@H]2C[C@H](O)[C@@H](CO)S2)c(=O)n1` [aza-T-dCyd, 5-Aza-4′-thio-2′-deoxycytidine], the “purity in solution (chemical stability)” value ([1]; 1,4-dioxane) is reported as > 95%, the “chemical stability in solution” value ([1]; IPA, heated at 80° C. (1 hour) or stored at RT for 24 h) is reported as “degraded significantly” and the “purity in solution (chemical stability)” value ([1]; acetonitrile) is reported as > 95%. For the same molecule, the “chemical stability in solution” value ([1]; methyl ethyl ketone, 1 hour at 50° C. and 80° C., 24 hour at RT) was “significant decomposition”, the “chemical stability (purity over time)” value ([2]; IPA, mother liquor) was “remained stable” and the “purity decreased over time to” value ([2]; acetonitrile, mother liquor) was 84%. For the same molecule, the “chemical stability (purity over time)” value ([2]; ethanol, mother liquor) was “remained stable”, the “Purity of Aza-T-dCYd after 72 h at 5° C.” value ([2]; solid phase from ACN suspension) was 98.8 area % and the “Purity of Aza-T-dCYd after 72 h at 5° C.” value ([2]; solid phase from EtOH suspension) was 99.8 area %. The “Purity of Aza-T-dCYd after 72 h at 5° C.” value ([2]; solid phase from IPA suspension) was 99.4 area %, the “purity of solids recovered from the suspensions” value ([2]; solid phases from the four solvents after 72 h at 5° C.) was “about 99 % (area %)” and the “purity decreased over time to” value ([2]; water solution) was 78%. The USP29 class. ([3]; 2,2,2,-trifluoroethanol, Methanol (rows r7-r8), class wraps over two lines: Slightly Soluble) was “Slightly”, the USP29 class. ([3]; Anisole to Toluene (rows r20-r33), class wraps over two lines: Practically insoluble) was “Practically” and the USP29 class. ([3]; Dimethylformamide, N,N-dimethylacetamide (rows r5-r6)) was “Soluble”. The USP29 class. ([3]; Ethanol to 1,2-dimethoxyethane (rows r9-r19), class wraps over three lines: Very Slightly Soluble) was “Very”, the solubility at 24 h ([3]; 1,2-dimethoxyethane) was 100 µg/mL (≈ 409 µM) and the solubility at 24 h ([3]; 1,4-dioxane) was 300 µg/mL (≈ 1230 µM). It also gave a solubility at 24 h ([3]; 1-propanol) of 400 µg/mL (≈ 1640 µM), a solubility at 24 h ([3]; 2,2,2,-trifluoroethanol) of 4100 µg/mL (≈ 16800 µM) and a solubility at 24 h ([3]; 2-butanol) of 300 µg/mL (≈ 1230 µM). The solubility at 24 h ([3]; 2-methyltetrahydrofuran) was 100 µg/mL (≈ 409 µM), the solubility at 24 h ([3]; 2-propanol) was 400 µg/mL (≈ 1640 µM) and the solubility at 24 h ([3]; 4-methyl-2-pentanone) was 100 µg/mL (≈ 409 µM). For the same molecule, the solubility at 24 h ([3]; Acetone) was 200 µg/mL (≈ 819 µM), the solubility at 24 h ([3]; Acetonitrile) was 100 µg/mL (≈ 409 µM) and the solubility at 24 h ([3]; Anisole) was < 100 µg/mL. For the same molecule, the solubility at 24 h ([3]; Chloroform) was < 100 µg/mL, the solubility at 24 h ([3]; Cumene) was < 100 µg/mL and the solubility at 24 h ([3]; Cyclohexane) was < 100 µg/mL. The solubility at 24 h ([3]; Dichloromethane) was < 100 µg/mL, the solubility at 24 h ([3]; Diethyl ether) was < 100 µg/mL and the solubility at 24 h ([3]; Dimethylformamide) was 65800 µg/mL (≈ 269000 µM). For the same molecule, the solubility at 24 h ([3]; Ethanol) was 800 µg/mL (≈ 3270 µM), the solubility at 24 h ([3]; Ethyl acetate) was < 100 µg/mL and the solubility at 24 h ([3]; Ethyl formate) was < 100 µg/mL. For the same molecule, the solubility at 24 h ([3]; Heptane) was < 100 µg/mL, the solubility at 24 h ([3]; Isopropyl acetate) was < 100 µg/mL and the solubility at 24 h ([3]; Methanol) was 3600 µg/mL (≈ 14700 µM). The solubility at 24 h ([3]; Methyl ethyl ketone) was < 100 µg/mL, the solubility at 24 h ([3]; N,N-dimethylacetamide) was 60000 µg/mL (≈ 246000 µM) and the solubility at 24 h ([3]; Tetrahydrofuran) was 100 µg/mL (≈ 409 µM). For the same molecule, the solubility at 24 h ([3]; Toluene) was < 100 µg/mL, the solubility at 24 h ([3]; p-Xylene) was < 100 µg/mL and the solubility at 24 h ([3]; tert-butyl methyl ether) was < 100 µg/mL.
